US9458172B2, “Pyridinyl and pyrimidinyl sulfoxide and sulfone derivatives” (priority 2012, dated 2016)
Like-named read-outs stand apart in the source and are kept apart here.

Assays:
[1] = target: NAMPT (Homo sapiens (Human), UniProt P43490); assay: Biochemical Inhibition Assay (NAMPT enzymatic reaction, NMN quantified by mass spectrometry); conditions: 33 nM recombinant His-tagged NAMPT, 1 μM NAM, 30 min at rt
Description: Assay 1: Biochemical Inhibition Assay
NAMPT protein purification. Recombinant His-tagged NAMPT was produced in E. coli cells, purified over a Ni column, and further purified over a size-exclusion column by XTAL Biostructures.
The NAMPT Enzymatic Reaction. The NAMPT enzymatic reactions were carried out in Buffer A (50 mM Hepes pH 7.5, 50 mM NaCl, 5 mM MgCl2, and 1 mM THP) in 96-well V-bottom plates. The compound titrations were performed in a separate dilution plate by serially diluting the compounds in DMSO to make a 100× stock. […] The compound and enzyme mixture was incubated for 15 min at rt, then 10 μL of 10× substrate and co-factors in Buffer A were added to the test well to make a final concentration of 1 μM NAM, […] 5-Phospho-D-ribose 1-diphosphate (PRPP), and 2.5 mM Adenosine 5′-triphosphate (ATP). The reaction was allowed to proceed for 30 min at rt, then was quenched with the addition of 11 μL of a solution of formic acid and L-Cystathionine to make a final concentration of 1% formic acid and 10 μM L-Cystathionine. Background and signal strength was determined by addition (or non-addition) of a serial dilution of NMN to a pre-quenched enzyme and cofactor mix.
Quantification of NMN. A mass spectrometry-based assay was used to measure the NAMPT reaction product, β-nicotinamide mononucleotide (NMN), and the internal control (L-Cystathionine). NMN and L-Cystathionine were detected using the services of Biocius Lifesciences with the RapidFire system. In short, the NMN and L-Cystathionine were bound to a graphitic carbon cartridge in 0.1% formic acid, eluted in 30% acetonitrile buffer, and injected into a Sciex 4000 mass spectrometer. The components of the sample were ionized with electrospray ionization and the positive ions were detected. […] The fragments are quantified and the analyzed by the following method.
Determination of IC50 Values. First, the NMN signal was normalized to the L-Cystathionine signal by dividing the NMN signal by the L-Cystathionine signal for each well. The signal from the background wells were averaged and subtracted from the test plates.

[2] = test system: A2780 cells; assay: In-Vitro Cell Proliferation Assay (SRB); conditions: Homo sapiens, A2780, 72 h
[3] = read-out: Cell Proliferation (IC50)
[4] = read-out: Cell Proliferation (IC50), A2780 cells, 72 h, sulforhodamine B

Chain of NAMPT (P43490 whole entry): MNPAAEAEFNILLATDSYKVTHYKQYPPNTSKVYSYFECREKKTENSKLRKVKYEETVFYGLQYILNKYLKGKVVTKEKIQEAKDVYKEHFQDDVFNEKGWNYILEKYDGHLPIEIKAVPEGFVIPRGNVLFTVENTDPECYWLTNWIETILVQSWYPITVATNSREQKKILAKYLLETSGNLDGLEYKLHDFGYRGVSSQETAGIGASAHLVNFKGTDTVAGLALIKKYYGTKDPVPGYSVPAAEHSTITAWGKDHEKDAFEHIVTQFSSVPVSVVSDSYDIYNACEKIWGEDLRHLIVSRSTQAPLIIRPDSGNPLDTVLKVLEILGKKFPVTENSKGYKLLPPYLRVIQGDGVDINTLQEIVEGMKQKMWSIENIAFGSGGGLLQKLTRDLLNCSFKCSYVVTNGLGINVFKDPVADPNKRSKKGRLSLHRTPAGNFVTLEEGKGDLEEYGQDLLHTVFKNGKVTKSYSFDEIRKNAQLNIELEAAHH

IC50 [1] | IC50 [2, 3] | IC50 [2, 4] | Structure (SMILES)
101 nM | 472 nM |  | Cn1cc(S(=O)(=O)c2ccc(CNC(=O)c3ccc4nccn4c3)nc2)cn1 [Example 36, Imidazo[1,2-a]pyridine-6-carboxylic acid [5-(1-methyl-1H-pyrazole-4-sulfonyl)-pyridin-2-ylmethyl]-amide]
3.5 nM | 1 nM |  | O=C(NCc1ccc(S(=O)(=O)c2ccc(N3CCOCC3)cc2)cn1)c1cc2ccncc2o1 [Example 37, Furo[2,3-c]pyridine-2-carboxylic acid [5-(4-morpholin-4-yl-benzenesulfonyl)-pyridin-2-ylmethyl]-amide]
2.1 nM |  | 10 nM | O=C(NCc1ccc(S(=O)(=O)c2ccc(N3CCOCC3)cc2)cn1)c1cnc2nccn2c1 [Example 38, Imidazo[1,2-a]pyrimidine-6-carboxylic acid [5-(4-morpholin-4-yl-benzenesulfonyl)-pyridin-2-ylmethyl]-amide]
2.8 nM |  | 0.8 nM | O=C(NCc1ccc(S(=O)(=O)c2ccc(N3CCOCC3)cc2)cn1)c1cc2ccncc2s1 [Example 39, Thieno[2,3-c]pyridine-2-carboxylic acid [5-(4-morpholin-4-yl-benzenesulfonyl)-pyridin-2-ylmethyl]-amide]
134 nM | 2000 nM |  | Cn1cc(S(=O)(=O)c2ccc(CNC(=O)c3cc4ccncc4s3)nc2)cn1 [Example 40, Thieno[2,3-c]pyridine-2-carboxylic acid [5-(1-methyl-1H-pyrazole-4-sulfonyl)-pyridin-2-ylmethyl]-amide]
19 nM | 7.2 nM |  | O=C(NCc1ccc(S(=O)(=O)c2ccc(N3CCOCC3)nc2)cn1)c1cnc2[nH]ncc2c1 [Example 41, 1H-Pyrazolo[3,4-b]pyridine-5-carboxylic acid (5-(6-morpholin-4-yl-pyridine-3-sulfonyl)-pyridin-2-ylmethyl]-amide]
249 nM | 86.3 nM |  | O=C(NCc1ccc(S(=O)(=O)C2CCN(C3CCOCC3)CC2)cn1)c1cc2cnccc2[nH]1 [Example 42, 1H-Pyrrolo[3,2-c]pyridine-2-carboxylic acid {5-[1-(tetrahydro-pyran-4-yl)-piperidine-4-sulfonyl]-pyridin-2-ylmethyl)-amide]
27.3 nM | 24.1 nM |  | CCCn1cc(S(=O)(=O)c2ccc(CNC(=O)c3ccc4nccn4c3)nc2)cn1 [Example 43, Imidazo[1,2-a]pyridine-6-carboxylic acid [5-(1-propyl-1H-pyrazole-4-sulfonyl)-pyridin-2-ylmethyl]-amide]
29.9 nM |  | 20 nM | CC(C)n1cc(S(=O)(=O)c2ccc(CNC(=O)c3ccc4nccn4c3)nc2)cn1 [Example 44]
6.9 nM | 1.6 nM |  | CN1CCN(c2ccc(S(=O)(=O)c3ccc(CNC(=O)c4ccc5nccn5c4)nc3)cn2)CC1 [Example 46, Imidazo[1,2-a]pyridine-6-carboxylic acid {5-[6-(4-methyl-piperazin-1-yl)-pyridine-3-sulfonyl]-pyridin-2-ylmethyl}-amide]
2.2 nM | 14.1 nM |  | CN1CCN(c2ccc(S(=O)(=O)c3ccc(CNC(=O)c4cnc5nccn5c4)nc3)cn2)CC1 [Example 47, Imidazo[1,2-a]pyrimidine-6-carboxylic acid {5-[6-(4-methyl-piperazin-1-yl)-pyridine-3-sulfonyl]-pyridin-2-ylmethyl}-amide]
2.3 nM | 8.5 nM |  | CN1CCN(c2ccc(S(=O)(=O)c3ccc(CNC(=O)c4cnc5nccn5c4)nc3)cc2)CC1 [Example 48, Imidazo[1,2-a]pyrimidine-6-carboxylic acid {5-[4-(4-methyl-piperazin-1-yl)-benzenesulfonyl]-pyridin-2-ylmethyl)-amide]
3.7 nM | 34.5 nM |  | O=C(NCc1ccc(S(=O)(=O)c2cccc(C(F)(F)F)c2)cn1)N1Cc2ccncc2C1 [Example 49, 1,3-Dihydro-pyrrolo[3,4-c]pyridine-2-carboxylic acid [5-(3-trifluoromethyl-benzenesulfonyl)-pyridin-2-ylmethyl]-amide]
3.4 nM | 13.5 nM |  | O=C(NCc1ccc(S(=O)(=O)c2cccc(OC(F)(F)F)c2)cn1)N1Cc2ccncc2C1 [Example 50, 1,3-Dihydro-pyrrolo[3,4-c]pyridine-2-carboxylic acid [5-(3-trifluoromethoxy-benzenesulfonyl)-pyridin-2-ylmethyl]-amide]
170 nM | 301 nM |  | O=C(NCc1ccc(S(=O)(=O)C2CCOCC2)cn1)c1cc2ccncc2o1 [Example 51, Furo[2,3-c]pyridine-2-carboxylic acid [5-(tetrahydro-pyran-4-sulfonyl)-pyridin-2-ylmethyl]-amide]
2 nM |  | 0.5 nM | O=C(NCc1ccc(S(=O)(=O)c2ccc(N3CCOCC3)nc2)cn1)c1cc2ccncc2o1 [Example 52, Furo[2,3-c]pyridine-2-carboxylic acid [5-(6-morpholin-4-yl-pyridine-3-sulfonyl)-pyridin-2-ylmethyl]-amide]
92.1 nM | 548 nM |  | O=C(NCc1ccc(S(=O)(=O)C2CCOCC2)cn1)c1cc2ccncc2s1 [Example 53, Thieno[2,3-c]pyridine-2-carboxylic acid [5-(tetrahydro-pyran-4-sulfonyl)-pyridin-2-ylmethyl]-amide]
1.7 nM | 0.5 nM |  | O=C(NCc1ccc(S(=O)(=O)c2ccc(N3CCOCC3)nc2)cn1)c1cc2ccncc2s1 [Example 54, Thieno[2,3-c]pyridine-2-carboxylic acid [5-(6-morpholin-4-yl-pyridine-3-sulfonyl)-pyridin-2-ylmethyl]-amide]
25.9 nM | 15.1 nM |  | O=C(NCc1ccc(S(=O)(=O)C2CCN(C3COC3)CC2)cn1)c1cc2ccncc2s1 [Example 56, Thieno[2,3-c]pyridine-2-carboxylic acid [5-(1-oxetan-3-yl-piperidine-4-sulfonyl)-pyridin-2-ylmethyl]-amide]
27.5 nM |  | 237 nM | O=C(NCc1ccc(S(=O)(=O)C2CCCCC2)cn1)N1Cc2ccncc2C1 [Example 59, 1,3-Dihydro-pyrrolo[3,4-c]pyridine-2-carboxylic acid (5-cyclohexanesulfonyl-pyridin-2-ylmethyl)-amide]
693 nM | 1300 nM |  | O=C(NCc1ccc(S(=O)(=O)C2CCOCC2)cn1)c1ccc2nccn2c1 [Example 60, Imidazo[1,2-a]pyridine-6-carboxylic acid [5-(tetrahydro-pyran-4-sulfonyl)-pyridin-2-ylmethyl]-amide]
30.7 nM | 7 nM |  | COc1ccc(S(=O)(=O)c2ccc(CNC(=O)c3ccc4nccn4c3)nc2)cc1OC [Example 65, Imidazo[1,2-a]pyridine-6-carboxylic acid [5-(3,4-dimethoxy-benzenesulfonyl)-pyridin-2-ylmethyl]-amide]
2.8 nM | 2.8 nM |  | COc1ccc(S(=O)(=O)c2ccc(CNC(=O)c3cc4ccncc4o3)nc2)cc1OC [Example 66, Furo[2,3-c]pyridine-2-carboxylic acid [5-(3,4-dimethoxy-benzenesulfonyl)-pyridin-2-ylmethyl]-amide]
2.6 nM | 1.9 nM |  | CN(C)c1ccc(S(=O)(=O)c2ccc(CNC(=O)c3cc4ccncc4o3)nc2)cn1 [Example 67, Furo[2,3-c]pyridine-2-carboxylic acid [5-(6-dimethylamino-pyridine-3-sulfonyl)-pyridin-2-ylmethyl]-amide]
